Laboratory results from article PMC10535842, “Novel Thiazole-Based SIRT2 Inhibitors Discovered via Molecular Modelling Studies and Enzymatic Assays” (Pharmaceuticals, 2023).
Several values for one entry are separate records, joined by “and”; a condition that tells them apart may be missing. Equal entries are not always repeated. Entries after “also recorded” stand apart in the source; their conditions may differ. Where two headings read alike, the source gives them in different places.

Experiments:
recombinant SIRT2 = molecular target: T1, recombinant SIRT2 (Homo sapiens, UniProt Q8IXJ6); assay: SIRT2 deacetylase activity, recombinant SIRT2 incubated with acetylated peptide H3K9Ac and NAD+; format: biochemical; conditions: recombinant protein
T1 sequence (Q8IXJ6 1-389): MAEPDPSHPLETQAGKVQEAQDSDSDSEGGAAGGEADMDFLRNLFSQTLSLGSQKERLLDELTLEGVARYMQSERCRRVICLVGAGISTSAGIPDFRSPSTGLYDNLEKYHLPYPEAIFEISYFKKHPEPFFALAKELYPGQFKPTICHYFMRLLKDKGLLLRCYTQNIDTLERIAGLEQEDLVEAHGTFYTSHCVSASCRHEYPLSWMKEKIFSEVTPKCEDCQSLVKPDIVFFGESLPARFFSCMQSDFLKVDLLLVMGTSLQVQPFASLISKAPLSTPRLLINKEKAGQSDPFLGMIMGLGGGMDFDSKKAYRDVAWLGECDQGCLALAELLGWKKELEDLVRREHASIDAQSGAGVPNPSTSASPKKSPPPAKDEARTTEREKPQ
Method: The effect of the in silico screened compounds on the SIRT2 deacetylase activity was evaluated thanks to the incubation of recombinant SIRT2 with an acetylated peptide (H3K9Ac, a peptide acetylated on Lys 9) and NAD^+.

SIRT6 = SIRT6 (Homo sapiens, UniProt Q8N6T7); assay: SIRT6 deacetylase and depalmitoylase activity (H3K9Ac / H3K9Palm peptides); format: biochemical
Chain of SIRT6 (Q8N6T7 whole entry): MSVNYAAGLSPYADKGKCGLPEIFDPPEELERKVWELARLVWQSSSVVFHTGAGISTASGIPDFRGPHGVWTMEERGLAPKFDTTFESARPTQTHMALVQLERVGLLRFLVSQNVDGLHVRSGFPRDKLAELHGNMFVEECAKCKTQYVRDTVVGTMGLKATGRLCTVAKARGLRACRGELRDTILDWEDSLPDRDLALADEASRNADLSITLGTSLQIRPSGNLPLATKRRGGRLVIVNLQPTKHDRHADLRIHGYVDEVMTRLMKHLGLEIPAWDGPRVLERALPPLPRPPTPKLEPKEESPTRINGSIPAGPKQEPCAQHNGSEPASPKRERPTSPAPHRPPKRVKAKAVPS
Method: The synthesis of peptides H3K9Ac and H3K9Palm and the evaluation of the SIRT2 deacetylase activity and of the SIRT6 deacetylase and depalmitoylase activity were carried out as previously described. The IC50 of compound 1a was determined as in [43].

[1] = tested on: SIRT2 activity (acetylation status of α-tubulin); assay: α-tubulin acetylation in cultured CFBE41o- cells (immunoblotting); format: cell-based, human; conditions: 10 μM
Method: Finally, experiments were performed to determine whether compound 1a was active in intact cells. The acetylation status of α-tubulin, a known target of SIRT2 deacetylase activity, was used to monitor SIRT2 activity in human cells.
The cells were incubated with 10 μM of compound 1a or the respective amount of vehicle DMSO, and were used for protein lysate generation; then, the total and acetylated α-tubulin levels were detected by Immunoblotting. The levels of acetylated α-tubulin were quantified, normalized to the total α-tubulin, and expressed as percentage increase vs. vehicle-treated cells. One representative Western blot analysis and the mean ± SD of 3 quantifications are shown. **, p < 0.01.
The bronchial epithelial CFBE41o- cells were cultured as in [20]. […] The proteins were subsequently transferred to nitrocellulose membranes and the expression of the total or acetylated α-tubulin was detected using the following primary antibodies: anti-α-tubulin (rabbit polyclonal, #2125, Cell Signalling Technology, Danvers, MA, USA) and anti-acetylated α-tubulin (rabbit polyclonal, #5335, Cell Signalling Technology). Following incubation with the appropriate secondary antibodies and Amersham ECL detection (Cytiva, Milano, Italy), the band intensity was quantified using the ChemiDoc imaging system (Bio-Rad, Milan, Italy). α-tubulin acetylation was normalized to the total α-tubulin levels.

recombinant human HSP70 = molecular target: T2, recombinant human HSP70 (Homo sapiens, UniProt P0DMV8); assay: HSP70 ATPase catalytic activity, Malachite green assay; format: biochemical; conditions: 300 μM final concentration; read-out: percentage of inhibition of HSP70 ATPase activity
T2 construct: made in house; host or cells: E. coli BL21 (DE3)
T2 sequence (P0DMV8 whole entry): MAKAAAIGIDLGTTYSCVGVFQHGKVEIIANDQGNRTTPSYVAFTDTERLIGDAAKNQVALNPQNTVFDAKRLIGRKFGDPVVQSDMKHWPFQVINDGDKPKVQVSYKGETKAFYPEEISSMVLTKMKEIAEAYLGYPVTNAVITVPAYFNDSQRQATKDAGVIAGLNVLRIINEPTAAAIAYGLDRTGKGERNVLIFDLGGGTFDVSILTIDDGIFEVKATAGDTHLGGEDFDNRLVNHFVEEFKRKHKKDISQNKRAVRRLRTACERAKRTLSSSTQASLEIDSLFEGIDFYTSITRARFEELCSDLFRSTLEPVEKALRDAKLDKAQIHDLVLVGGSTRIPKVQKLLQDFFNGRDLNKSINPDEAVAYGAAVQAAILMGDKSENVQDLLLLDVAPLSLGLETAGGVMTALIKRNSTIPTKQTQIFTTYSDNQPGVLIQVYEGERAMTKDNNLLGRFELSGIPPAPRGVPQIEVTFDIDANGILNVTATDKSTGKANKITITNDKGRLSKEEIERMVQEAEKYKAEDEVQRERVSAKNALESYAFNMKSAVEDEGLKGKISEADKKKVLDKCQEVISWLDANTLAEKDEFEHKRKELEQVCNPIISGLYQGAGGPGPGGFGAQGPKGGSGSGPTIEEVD
Method: The impact of selected molecules on the ATPase catalytic activity of an in-house produced recombinant human HSP70 protein was determined using the Malachite green assay, incubating the recombinant protein with ATP in the presence or absence of different compounds (300 μM final concentration). The percentage of inhibition exerted by the selected compounds on the ATPase activity was as follow: 1a, 49 ± 2%; 2a, 40 ± 1%; 3a, 44 ± 4%; 4a, 20 ± 1%; 5a, 19 ± 1%; 6a, 37 ± 1%; 7a, 47 ± 1%.
The recombinant human Hsp70 protein was produced in BL21 (DE3) E. coli transformed with the pET-6xHis/hHSP70 plasmid containing the coding sequence for human HSP70 (hHSPA1A gene, NM_005345.6; purchased from Vector Builder, Vector ID VB210930). This vector allowed for producing an N-terminal 6xHis tag fusion HSP70 protein.
BL21 cells containing the vector were initially grown in Luria−Bertani medium at 37 °C (Merck, Milan, Italy) with 200 μg/mL ampicillin until the culture reached an OD600 of 0.5. The 6xHis/hHSP70 fusion protein was expressed by adding isopropyl-β-d-thiogalactopyranoside (final concentration of 0.2 mM) and incubating the bacteria culture at 37 °C for 2 h. The cells were harvested by centrifugation and then lysed by sonication in 20 mM Tris-HCl, 250 mM KCl, and 10 mM MgCl2 pH 7.4; after the addition of Triton X-100 to a final concentration of 1% and incubation for 30 min at 4 °C, the lysates were centrifugated at 10,000× g for 15 min. The HSP70 protein was purified by affinity chromatography using His GraviTrap TALON columns (Euroclone, Milan, Italy). Briefly, after loading the lysate, the resin was washed twice with 20 mM Tris-HCl, 250 mM KCl, and 10 mM MgCl2 pH 7.4 and twice with the same buffer containing 10 mM of imidazole. The elution of the recombinant protein was obtained with 150 mM imidazole, pH 7.4. Imidazole was removed from the recombinant protein through overnight dialysis using a dialysis tubing membrane (Merck KGaA, Frankfurter Strasse 250 Darmstadt, Germany) and the protein was concentrated using a Centricon (Merck Millipore, 11 Avenida Norte Bis No. 513, San Salvador, El Salvador). The protein concentrations were determined using the Bradford assay (Bio-Rad Laboratories, Inc. Italy, Segrate) and the protein purity was monitored using SDS-PAGE.
The ATPase catalytic activity of recombinant human HSP70 was measured with a colorimetric assay using the malachite green reagent. Briefly, 6 µM of HSP70 protein was incubated for 30 min at 37 °C with 5 mM ATP in 20 mM Tris-HCl, 250 mM KCl, 10 mM MgCl2, and 0.02%TritonX-100, pH 7.4. The released phosphates were quantified by adding the malachite green reagent to an aliquot of this incubation and the absorbance was recorded at 620 nm using a Clariostar plate reader. The effects of thiazoles-based molecules on the ATPase catalytic activity were measured by adding (or not) the different molecules to the incubation (at 300 µM final concentration). To correct for non-enzymatic hydrolysis of ATP and for a specific absorbance of molecules, the absorbance signal of identically treated samples lacking the HSP70 protein was subtracted.

SIRT2 [2] = conditions: substrate ZMAL; read-out: SIRT2 IC50 (series A, compounds 1-26); cited from earlier work
SIRT2 [3] = conditions: substrate RHKK(Ac)-AMC; read-out: SIRT2 IC50 (series B, compounds 27-111); cited from earlier work
SIRT2 [4] = conditions: HPLC assay, H3K9Ac; read-out: SIRT2 IC50 (series C, compounds 112-116); cited from earlier work

CSc1cccc(Nc2nc(-c3nc4ccccc4s3)cs2)c1 [Compound 1a]
inhibition at 150 µM (recombinant SIRT2): 72 ± 8%
IC50 (recombinant SIRT2): 45.1 ± 5 µM
effect on SIRT6 deacetylase activity (SIRT6): did not significantly affect
selectivity over SIRT6 (SIRT6): selective over SIRT6
effect on SIRT6 depalmitoylase activity (SIRT6; palmitoylated peptide H3K9Palm): did not significantly affect
α-tubulin acetylation (acetylated normalized to total α-tubulin, vs vehicle) [1]: higher levels of the acetylated SIRT2 substrate; also recorded: increased α-tubulin acetylation
inhibition at 300 µM (recombinant human HSP70): 49 ± 2%

CCc1ccc(Nc2nc(-c3ccc(Cl)cc3)cs2)cc1SC [Compound 2a]
% Inhibition SIRT2 (at 150 μM) (recombinant SIRT2): 100 ± 9%
inhibition at 150 µM (recombinant SIRT2): > 90%
IC50 (recombinant SIRT2): 17.3 ± 2 µM
inhibition at 300 µM (recombinant human HSP70): 40 ± 1%

Cc1cccc(Cc2cnc(NC(=O)CSc3nc(C)cc(C)n3)s2)c1 [Compound 3]
IC50 (SIRT2 [2]): 1.64 µM

CSc1cccc(Nc2nc(-c3cccc(Cl)c3)cs2)c1 [Compound 3a]
inhibition at 150 µM (recombinant SIRT2): 60 ± 8%
inhibition at 300 µM (recombinant human HSP70): 44 ± 4%

Cc1cc(C)nc(SCC(=O)Nc2ncc(Cc3ccc(Cl)cc3)s2)n1 [Compound 4]
IC50 (SIRT2 [2]): 3.4 µM

CSc1cccc(Nc2nc(-c3ccc4c(c3)CC(=O)N4)cs2)c1 [Compound 4a]
inhibition at 150 µM (recombinant SIRT2): 60 ± 5%
inhibition at 300 µM (recombinant human HSP70): 20 ± 1%

CCOc1cccc(Cc2cnc(NC(=O)CSc3nc(C)cc(C)n3)s2)c1 [Compound 5]
IC50 (SIRT2 [2]): 1.33 µM

CSc1cccc(Nc2nc(-c3ccc4[nH]c(=O)sc4c3)cs2)c1 [Compound 5a]
inhibition at 150 µM (recombinant SIRT2): 76 ± 9%
inhibition at 300 µM (recombinant human HSP70): 19 ± 1%

Cc1cc(C)nc(SCC(=O)Nc2ncc(Cc3ccc(-c4ccccc4)cc3)s2)n1 [Compound 6]
IC50 (SIRT2 [2]): 164 µM and > 167 µM

O=C1Cc2cc(-c3csc(Nc4cccc(SC(F)(F)F)c4)n3)ccc2N1 [Compound 6a]
% Inhibition SIRT2 (at 150 μM) (recombinant SIRT2): 92 ± 7%
inhibition at 150 µM (recombinant SIRT2): > 90%
IC50 (recombinant SIRT2): 27.3 ± 4.7 µM
inhibition at 300 µM (recombinant human HSP70): 37 ± 1%

O=C(CSc1cccc(O)c1)Nc1ncc(Cc2cccc3ccccc23)s1 [Compound 7]
IC50 (SIRT2 [2]): 143 µM

CCn1c(=O)/c(=C2\Sc3ccccc3N2C)s/c1=C\c1ccccn1 [Compound 7a, YM-08]
% Inhibition SIRT2 (at 150 μM) (recombinant SIRT2): 93 ± 9%
inhibition at 150 µM (recombinant SIRT2): > 90%
IC50 (recombinant SIRT2): 19.9 ± 2.1 µM
inhibition at 300 µM (recombinant human HSP70): 47 ± 1%

Cc1cc(C)cc(SCC(=O)Nc2ncc(Cc3cccc4ccccc34)s2)c1 [Compound 8]
IC50 (SIRT2 [2]): 207 µM and > 167 µM

Cc1cc(C)nc(SCC(=O)Nc2ncc(C(=O)Nc3cccc4ccccc34)s2)n1 [Compound 9]
IC50 (SIRT2 [2]): 33 µM

Cc1cc(C)nc(SCC(=O)Nc2ncc(Cc3cccc4ccccc34)s2)n1 [Compound 10, SirReal2]
inhibition at 150 µM (recombinant SIRT2): 100 ± 5%

Cc1cc(C)nc(SC(C)C(=O)Nc2ncc(Cc3cccc4ccccc34)s2)n1 (stereo not shown) [Compound 12]
IC50 (SIRT2 [2]): 9.77 µM

Cc1cc(C)nc(SC(C)C(=O)Nc2ncc(Cc3cccc4ccccc34)s2)n1 (stereo not shown) [Compound 13]
IC50 (SIRT2 [2]): 0.26 µM

Cc1cc(C)nc(SCC(=O)Nc2ncc(Cc3c(C)ccc4ccccc34)s2)n1 [Compound 14]
IC50 (SIRT2 [2]): 0.31 µM

Cc1cc(C)nc(SCC(=O)Nc2ncc(Cc3cccc4ccc(Br)cc34)s2)n1 [Compound 15]
IC50 (SIRT2 [2]): 0.21 µM

Cc1cc(C)nc(SCC(=O)Nc2ncc(Cc3cccc4cc(Cl)ccc34)s2)n1 [Compound 16]
IC50 (SIRT2 [2]): 0.48 µM

O=C(CSc1ncccn1)Nc1ncc(Cc2cccc3ccccc23)s1 [Compound 17]
IC50 (SIRT2 [2]): 2.34 µM and 2.34 to 16.8 µM

CCc1cc(CC)nc(SCC(=O)Nc2ncc(Cc3cccc4ccccc34)s2)n1 [Compound 18]
IC50 (SIRT2 [2]): 45.6 µM

Cc1nc(SCC(=O)Nc2ncc(Cc3cccc4ccccc34)s2)nc(C)c1C [Compound 19]
IC50 (SIRT2 [2]): 15 µM

CCCc1cc(O)nc(SCC(=O)Nc2ncc(Cc3cccc4ccccc34)s2)n1 [Compound 21]
IC50 (SIRT2 [2]): 127 µM

Cc1cc(C)nc(SCC(=O)Nc2nnc(Cc3ccc(Cl)cc3)s2)n1 [Compound 23]
IC50 (SIRT2 [2]): 30.9 µM

Cc1cc(C)nc(SCC(=O)Nc2nnc(Cc3ccc(Br)cc3)s2)n1 [Compound 24]
IC50 (SIRT2 [2]): 168 µM

Cc1cc(C)nc(SCC(=O)Nc2nnc(Cc3cccc4ccccc34)s2)n1 [Compound 25]
IC50 (SIRT2 [2]): 1.89 µM

CCOc1ccc2nc(NC(=O)CSc3nc(C)cc(C)n3)sc2c1 [Compound 26]
IC50 (SIRT2 [2]): 207 µM and > 167 µM

COc1ccc2ccccc2c1Cn1cnc2sc(CCNCc3ccncc3)c(C)c2c1=O [Compound 110]
IC50 (SIRT2 [3]): 2.93 µM

COc1ccc2ccccc2c1Cn1cnc2sc(CCNC3CCOCC3)c(C)c2c1=O [Compound 111]
IC50 (SIRT2 [3]): 8.15 µM

O=C(On1nnc2ccccc21)c1cc[nH]c1 [Compound 112]
IC50 (SIRT2 [4]): 56.6 µM

O=C(On1nnc2ccccc21)c1ccc[nH]1 [Compound 113]
IC50 (SIRT2 [4]): 42.7 µM

Cc1ccc2[nH]cc(C(=O)On3nnc4ccccc43)c2c1 [Compound 115]
IC50 (SIRT2 [4]): 74 µM

O=C(On1nnc2ncccc21)c1c[nH]c2ccc(Br)cc12 [Compound 116]
IC50 (SIRT2 [4]): 77.1 µM
